Test results reported in patent US11129782B2, “Derivatives of PPD useful for coloring hair and skin” (National University of Singapore, priority 2017, dated 2021).
pIC50: −log10 of the molar value. Like-named read-outs stand apart in the source and are kept apart here. Values belong to the compound of their own block, whether it stands above or below them.

Experiments:
HaCaT cells = assay: In vitro cell cytotoxicity (MTT) assay on HaCaT cells; type: cell-based, human; settings: for pIC50: 72 h incubation, MTT
Excerpt: HaCaT (human, adult, low calcium, high temperature, human adult skin keratinocytes) cells were obtained from the IMB (Institute of Medical Biology) Skin Cell Bank. Fetal bovine serum (FBS), Dulbecco's minimum essential medium (DMEM) and trypsin EDTA solution were purchased from GE healthcare life sciences, Utah. Penicillin/streptomycin, dimethyl sulfoxide (DMSO), and phosphate buffered saline (PBS) were from Fisher Scientific (Singapore). Para-phenylenediamine (PPD) was purchased from Sigma Aldrich (Singapore). PPD analogues such as Dimer, trimer, ethyl hexyl para-phenylenediamine (EHPPD), hexyl para-phenylenediamine (HPPD), Bandrowski base (BB) were synthesized in house.
Cell viability was essentially determined using the MTT assay as described in the literature. The HaCaT cells were grown in DMEM with 10% FBS and 1% penicillin/streptomycin. The cells in T-75 cm^2 culture flasks were incubated with 5% CO2 at 37° C. in a humidified incubator. The HaCaT cells were grown to expected confluency and then they were harvested by trypsinizing the cell with 0.25% trypsin/EDTA and incubated at 37° C. for 5 min to obtain the complete cell detachment. After the incubation, cell pellets were resuspended, and washed twice with 1×PBS. The cell suspension in 1×PBS was counted and adjusted to 1×10^5/mL. A HaCaT keratinocyte suspension (100 μL in 1×PBS) with a cell concentration of 1×10^5 cells/mL) and a test solution (100 μL in milli-Q water) were combined in each well of two 96-well plates. Test solutions with a desired concentration were prepared by serial dilutions of the stock solutions with 1×PBS.
For the cytotoxicity experiment, cells were seeded at a density of 5×10^3 in 200 ul of medium into each well of 96-well plates. Cells were seeded as three sets of four replicates for each concentration. After 24 h of incubation, the cells were washed with PBS and cultured for 72 h with 200 ul of 10% FBS containing DMEM medium, together with the different concentrations of the test compounds ranging from 500 μM to 1.9 μM for PPD and analogues 1-5 and standard in a serial dilution. Then the medium was removed and 100 μl of MTT [3-(4,5-dimethylthiazol-2yl)-2,5-diphenyl-2H-tetrazolium bromide](1 mg/ml) (Alfa Aesar, Singapore) in PBS was added. At the end of 4 h incubation, the plates were removed from the incubator and plates were shaken for 5 min. The absorbance at 570 nm was determined using Bio-Tek plate reader. The cell viability rates were calculated from absorbance readings and represented as percentages of control value (untreated cells).

[1] = system: cysteine peptide (Ac-RFAACAA-COOH); assay: Direct Peptide Reactivity Assay, cysteine peptide; settings: for % of Cysteine depletion, Avg / % of Cysteine depletion, Rep 2 / % of Cysteine depletion, Rep 3 / Reactivity Class: 1:10; for % of Cysteine depletion, Rep 1: peptide 0.02 mM : test chemical 0.2 mM (1:10); for Reactivity Class: cysteine
Experimental: For cysteine DPRA, an additional step was performed.
(§1) The mass spectrometric analysis was performed by use of a AB SCIEX QTRAP 5500 tandem mass spectrometry (MS/MS) system (AB SCIEX, Framingham, Mass., USA) operating in triple quadrupole positive mode (ESI+) equipped with an AB Sciex Turbo Ion Spray interface. Acquisition and analysis of data were performed with Analyst software ver. 1.6.2 (Applied Biosystems).

[2] = system: lysine peptide (Ac-RFAAKAA-COOH); assay: Direct Peptide Reactivity Assay, lysine peptide; settings: for % of Lysine depletion, Avg / % of Lysine depletion, Rep 2 / % of Lysine depletion, Rep 3 / Reactivity Class: 1:50; for % of Lysine depletion, Rep 1: peptide 0.02 mM : test chemical 1 mM (1:50); for Reactivity Class: lysine
Experimental: as §1

IL-8 = IL-8 ELISA on THP-1 cell supernatants; type: cell-based, human; settings: preliminary ELISA, CV75
Experimental: (§2) For cytokine profiling in THP-1, supernatants from wells were collected and then used for cytokine analysis by a Chemokine immunosorbent assay Bio-legend ELISA Max kit. The levels of available IL-8 protein from THP-1 cell supernatants was estimated using this kit which are regulated upon activation of THP-1 model. Surface receptor expression of human CD-86, CD-54, MHC-I and IL-T3 were analyzed by flow cytometry using standard BD FACS analyzer with PE and FITC fluorescent labeled antibodies from Biolegend and e Bioscience.
(§3) In order to understand the effect of modified PPD hairdyes on THP-1 immune sensitization, a certain degree of Cytotoxicity at CV75% viable where 25% cell death is required before evaluation of supernatants in THP-1 models for expression of cytokine IL-8 and receptor expression of CD86, CD54, MHC-I and IL-T3 surface receptors upon treatment with standard PPD and modified hair dye compounds. Most allergens show a specific dose-dependent alteration of CD86 and/or CD54 expression or secretion of cytokine profiles. But depending on chemical, the alteration pattern may vary.

[3] = Solubility observed when preparing dyes; type: physicochemical; settings: water / organic solvents
[4] = system: cysteine and lysine peptides; assay: Direct Peptide Reactivity Assay, mean of cysteine and lysine depletion (FIG. 12); settings: for Mean peptide depletion: mean of cysteine (1:10) and lysine (1:50), FIG. 12
Experimental: (§4) Direct reactivity of test chemical to lysine-based synthetic peptide was determined in reactions containing 100 mM ammonium acetate buffer (pH 10.2). The final concentration of lysine peptide was 20 μM in a final reaction volume of 0.3 ml. Direct reactivity of test chemicals to cysteine-based synthetic peptide was determined in 100 mM Sodium Phosphate buffer of pH 7.5.
(§5) For the DPRA, incubation mixtures were prepared using each peptide to test compound ratios of both 1:10 for cysteine peptide and 1:50 for lysine peptide, according to Table 19. […] Sample reactions were initiated by adding 3 μl of a test chemical stock solution for cysteine and 15 μl stock solution for lysine peptide. These mixtures were then placed in a temperature-controlled shaking incubator at 25° C.
(§6) At each time point (20 mins/24 hours), the incubation mixtures were quenched with 75 μL of 95% ACN/H2O, and mildly vortexed (600 rpm, 3 seconds). For Lysine DPRA experiment, 10 μl of aliquot was diluted with 2% ACN/H2O, vortexed and stored at −80° C. until analysis by LC-MS/MS. For cysteine DPRA, an additional step was performed. 10 μl of cysteine reaction mixture, at time points 20 min and 24 h were diluted in 180 μl of 2% ACN/H2O. To which, a 10 μl aliquot of a 16 mM dithiothreitol solution (prepared in water) was then added, and samples were heated in a 45° C. oven for 30 min, then allowed to cool to room temperature prior to analysis. The peptide depletion (PD) percentage was obtained using this equation.

[5] = Skin permeation in vertical Franz diffusion cells; type: in vitro ADME, porcine; settings: 8 h
Experimental: Porcine ears were generously provided by the NUS Department of Surgery. The ears were frozen at −80° C. until use (up to 3 months) and thawed at room temperature on the day preceding the experiment. Prior to the experiment, the skin was separated from the cartilage and dermatomed to a thickness of ˜1.0 mm using an Acculan™ 3Ti dermatome (Aesculap, Inc., B. Braun, USA).
The PPD and derivatives were dissolved in deionized water at 1% w/v. The PPD and PPD derivatives 1-5 solutions were purged with argon gas to minimize oxidation of the donor solution.
Skin penetration studies were carried out using vertical Franz diffusion cells (PermeGear, USA) immersed in a 37° C. water bath. The donor and receptor volumes were 900 µL and 5 mL, respectively; the mean surface area of penetration was 0.64 cm^2. Upon insertion of the skin pieces into the Franz cells, the skin was equilibrated for 45 min with PBS in the receptor compartment. After equilibration, the skin's trans-epidermal water loss (TEWL) was measured using an Aquaflux AF300 (Biox, UK) to assess the integrity of the skin's stratum corneum barrier. The donor solution, consisting of PPD or derivative 1-5 (n=3 Franz cells each), was then added to the donor compartment and the penetration experiments were conducted for 8 h. The receptor solutions were continuously stirred with magnetic stirrers. At fixed time points, aliquots of 200 μL were taken from the receptor solution of each cell and the receptor solution topped up with 200 μL of fresh PBS. At the end of the experiment, the donor and receptor solutions were removed and the cells dismantled. For the purpose of mass balance on the PPD, PPD derivatives 1-5 the skin pieces and swabs of their outer surfaces were collected and stored in acetonitrile for PPD or derivative 1-5 extraction. The donor solution as well as PBS used to thoroughly wash each part of the Franz cells were also collected.
PPD, PPD derivatives 1-5 and metabolite concentrations in all permeation and mass balance samples were measured by LCMS. PPD steady state fluxes and permeability coefficients were calculated by fitting the solution to Fick's second law of diffusion at the steady state to the linear part of each experimental cumulative amount curve.
The validated method LCMS was applied to quantify PPD, PPD derivative 1-5 and metabolites from skin permeation study samples. FIGS. 3 and 4 show LCMS spectra for the identification of PPD and PPD derivatives 1 and 2 and metabolites from skin permeation study experiment.

CD86 = CD86 surface expression on THP-1 by flow cytometry; type: cell-based, human
Experimental: as §2, §3

CD54 = CD54 surface expression on THP-1 by flow cytometry; type: cell-based, human
Experimental: as §2, §3

ILT3 = ILT3 surface expression on THP-1 by flow cytometry; type: cell-based, human; settings: in comparison to DCNB
Experimental: as §2, §3

[6] = system: cysteine and lysine peptides
Experimental: as §4, §5, §6

SMILES: NC1=CC(=Nc2ccc(N)cc2)C(N)=CC1=Nc1ccc(N)cc1 [Bandrowski Base, reference compound]
- pIC50 (HaCaT cells): 5.22
- % of Cysteine depletion, Avg ([1]; 20 min): 44.2%
- % of Cysteine depletion, Rep 2 ([1]; 20 min): 44.5%
- % of Cysteine depletion, Rep 3 ([1]; 20 min): 45.5%
- % of Cysteine depletion, Rep 1 ([1]; 20 min): 42.5%
- % of Cysteine depletion, Avg ([1]; 24 h): 70.7%
- % of Cysteine depletion, Rep 2 ([1]; 24 h): 69.9%
- % of Cysteine depletion, Rep 3 ([1]; 24 h): 70.4%
- % of Cysteine depletion, Rep 1 ([1]; 24 h): 71.8%
- Reactivity Class ([1]; 20 min): High
- Reactivity Class ([1]; 24 h): High
- % of Lysine depletion, Avg ([2]; 20 min): 6.7%
- % of Lysine depletion, Rep 2 ([2]; 20 min): 7.89%
- % of Lysine depletion, Rep 3 ([2]; 20 min): 2.54%
- % of Lysine depletion, Rep 1 ([2]; 20 min): 9.58%
- % of Lysine depletion, Avg ([2]; 24 h): 5.6%
- % of Lysine depletion, Rep 2 ([2]; 24 h): 6.0%
- % of Lysine depletion, Rep 3 ([2]; 24 h): 5.5%
- % of Lysine depletion, Rep 1 ([2]; 24 h): 5.4%
- Reactivity Class ([2]; 20 min): Low
- Reactivity Class ([2]; 24 h): Low
- IL-8 expression (IL-8): increased expression
- Solubility (in words) [3]: limited solubility in water
- Sensitizing potential predicted from mean peptide depletion ([4]; cysteine 1:10 / lysine 1:50 model): moderate sensitizer
- Mean peptide depletion [4]: 38.9%

- % Parent compound Penetrated (mean) ([5]; 1% W/V applied): 0.0001%
- % converted to metabolite (mean) ([5]; 1% W/V applied): 0.0108%
- Permeation less than PPD [5]: about 2 order of magnitude
- recovery at 8 h, 1 % w/v ([5]; pig, 1% W/V applied, read-out: % Parent compound Recovery (mean)): 96.7%
- Penetration profile PPD vs derivatives (times less than PPD) ([5]; ratio of PPD penetration to that of the compound): 1620
- ILT3 (inhibitory receptor) expression (ILT3): increased
SMILES: CCCCCCOC(=O)c1cc(N)ccc1N [PPD derivative 15, Hexyl-2,5-diaminobenzoate]
- Improvement of cell viability in comparison to PPD 4 (HaCaT cells): about 5 times
- pIC50 (HaCaT cells; Homo sapiens, HaCaT, 72 h): 3.79
- IL-8 expression (IL-8): do not stimulate IL-8 expression
- Expression of CD86 (CD86): not stimulated
- Expression of CD54 (CD54): not stimulated

SMILES: Cc1ccc(NCc2ccc(-c3ccc(Nc4ccc(N)cc4)cc3)cc2)cc1 [PPD derivative 9, 4-Amino-4′-[(4-tolylaminomethyl)phenyl]diphenylamine]
- pIC50 (HaCaT cells): 5.17
- Sensitizing potential predicted from mean peptide depletion [6]: weak sensitizer
- Mean peptide depletion [4]: 17.9%
